Literature values as cited in patent publication US20240115695A1, “Method of Obtaining Betulin as an Adjuvant in a Vaccine Against Coronavirus SARS-COV-2” (BETUVAKS LIMITED LIABILITY COMPANY, priority 2020, published 2024).

Experiments:
[1] = in vivo

Compound	LD50 [1]	MPC [1]	solubility of betulin
C1CCOC1 [THF, tetrahydrofuran]	2300 mg/kg	100 mg/m^3	–
C=C(C)[C@@H]1CC[C@]2(CO)CC[C@]3(C)[C@H](CC[C@@H]4[C@@]5(C)CC[C@H](O)C(C)(C)[C@@H]5CC[C@]43C)[C@@H]12 [betulin]	–	–	less than 1 μg/mL
